Results taken from patent US12421253B2 (Mirati Therapeutics, Inc., priority 2020, dated 2025).

Tests used:
KRas^G13D = KRas^G13D (Homo sapiens, UniProt P01116, G13D); test: biochemical
Procedure: (§3) The ability of a compound to bind to KRas was measured using a TR-FRET displacement assay. […] After a 60-minute incubation at room temperature, the reaction was measured using a BMG LABTECH CLARIO star Plus via TR-FRET. […] The POC values were fit to a 4-parameter IC50 equation and the IC50 value reported.

KRas^G12C = KRas^G12C (Homo sapiens, UniProt P01116, G12C); test: biochemical
Procedure: as §3

KRas^G12V = biological target: T1, KRas^G12V (Homo sapiens, UniProt P01116, G12V); test: KRas binding assay (TR-FRET displacement of Cy5 labelled tracer)
T1 construct: […]; biotin (biotinylated); purchased Accelegan Inc
Procedure: as §3

KRas^G12D = biological target: T2, KRas^G12D (Homo sapiens, UniProt P01116, G12D); test: as above
T2 construct: […]; biotin (biotinylated); purchased Accelegan Inc
T2 sequence (P01116 1-169 isoform P01116-2 G12D): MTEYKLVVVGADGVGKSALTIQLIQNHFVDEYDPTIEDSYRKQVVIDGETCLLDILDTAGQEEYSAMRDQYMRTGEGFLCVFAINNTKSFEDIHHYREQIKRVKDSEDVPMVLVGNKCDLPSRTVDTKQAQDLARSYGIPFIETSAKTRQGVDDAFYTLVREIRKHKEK
Procedure: as §3

KRas^WT = biological target: T3, KRas^WT (Homo sapiens, UniProt P01116); test: as above
T3 construct: […]; biotin (biotinylated); purchased Accelegan Inc
T3 sequence (P01116 1-169 isoform P01116-2): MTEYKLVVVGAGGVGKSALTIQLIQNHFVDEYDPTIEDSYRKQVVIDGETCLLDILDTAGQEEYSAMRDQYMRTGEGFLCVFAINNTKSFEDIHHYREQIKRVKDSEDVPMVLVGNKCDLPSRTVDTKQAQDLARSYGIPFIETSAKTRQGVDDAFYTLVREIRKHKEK
Procedure: as §3

KRas^Q61H = KRas^Q61H (Homo sapiens, UniProt P01116, Q61H); test: biochemical
Sequence of KRas^Q61H (P01116 1-169 isoform P01116-2 Q61H): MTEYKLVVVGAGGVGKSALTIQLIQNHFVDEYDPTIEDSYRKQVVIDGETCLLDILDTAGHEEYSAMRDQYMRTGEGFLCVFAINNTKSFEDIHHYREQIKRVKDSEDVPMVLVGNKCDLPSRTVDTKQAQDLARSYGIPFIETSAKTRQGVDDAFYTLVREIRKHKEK
Procedure: as §3

KRas^G12S = biological target: T4, KRas^G12S (Homo sapiens, UniProt P01116, G12S); test: KRas binding assay (TR-FRET displacement of Cy5 labelled tracer)
T4 construct: […]; biotin (biotinylated); purchased Accelegan Inc
T4 sequence (P01116 1-169 isoform P01116-2 G12S): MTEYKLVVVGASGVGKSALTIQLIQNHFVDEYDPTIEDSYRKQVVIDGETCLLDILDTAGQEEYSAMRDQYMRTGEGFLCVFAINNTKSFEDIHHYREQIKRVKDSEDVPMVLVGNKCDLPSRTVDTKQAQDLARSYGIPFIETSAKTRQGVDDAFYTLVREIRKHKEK
Procedure: as §3

KRas^G12R = biological target: T5, KRas^G12R (Homo sapiens, UniProt P01116, G12R); test: as above
T5 construct: […]; biotin (biotinylated); purchased Accelegan Inc
T5 sequence (P01116 1-169 isoform P01116-2 G12R): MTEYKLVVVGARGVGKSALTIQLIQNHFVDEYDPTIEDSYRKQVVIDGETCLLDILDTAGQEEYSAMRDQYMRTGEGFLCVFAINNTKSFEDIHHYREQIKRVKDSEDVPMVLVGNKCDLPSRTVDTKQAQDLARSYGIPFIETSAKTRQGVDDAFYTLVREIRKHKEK
Procedure: as §3

[1] = system: A549 (G12S) cells, phospho-ERK; test: Inhibition of KRas-mediated phosphorylation of ERK (phospho-ERK/GAPDH antibody detection, LI-COR); assay type: cell-based; settings: Homo sapiens, 3 hours
Outline: (§1)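 Cells seeded 20,000/well, attached 12-14 h, then compound (0.5% DMSO) for 3 h. Formaldehyde-fixed, methanol-permeabilized cells stained for phospho-ERK (Thr202/Tyr204) and GAPDH; infrared imaging. Ratio expressed as % of DMSO control; IC50 from 4-parameter fit.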

[2] = system: PSN-1 (G12R) cells, phospho-ERK; test: as above; assay type: cell-based; settings: Homo sapiens, PSN1, 3 hours
Outline: as §1

[3] = system: HCT116 (G13D) cells, phospho-ERK; test: as above; assay type: cell-based; settings: Homo sapiens, HCT-116, 3 hours
Outline: as §1

[4] = system: NCI-H727 (G12V) cells, phospho-ERK; test: as above; assay type: cell-based; settings: Homo sapiens, 3 hours
Outline: as §1

[5] = system: NCI-H358 (G12C) cells, phospho-ERK; test: as above; assay type: cell-based; settings: Homo sapiens, 3 hours
Outline: as §1

[6] = system: NCI-H460 (Q61H) cells, phospho-ERK; test: as above; assay type: cell-based; settings: Homo sapiens, 3 hours
Outline: as §1

[7] = system: AsPC-1 (G12D) cells, phospho-ERK; test: as above; assay type: cell-based; settings: Homo sapiens, ASPC1, 3 hours
Outline: as §1

KRas^G12A = biological target: T6, KRas^G12A (Homo sapiens, UniProt P01116, G12A); test: KRas binding assay (TR-FRET displacement of Cy5 labelled tracer)
T6 construct: […]; biotin (biotinylated); purchased Accelegan Inc
T6 sequence (P01116 1-169 isoform P01116-2 G12A): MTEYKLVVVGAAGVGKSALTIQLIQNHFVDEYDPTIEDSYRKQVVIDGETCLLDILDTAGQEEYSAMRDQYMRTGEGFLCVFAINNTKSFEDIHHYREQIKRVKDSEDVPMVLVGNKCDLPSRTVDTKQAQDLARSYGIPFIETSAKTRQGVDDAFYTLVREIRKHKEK
Procedure: as §3

A549 cells, pERK = test: Inhibition of KRas phosphorylation of ERK (Cisbio HTRF Advanced pERK assay); assay type: cell-based; settings: Homo sapiens, 3 hrs, read-out: Inhibition (HTRF IC50 nM) of KRas-mediated Phosphorylation of ERK, A549
Outline: (§2)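 Overnight-plated cells (RPMI, 10% FBS); compound 3 h, 37 °C, 10 uM top, 3-fold x10, 0.8% DMSO; min ctrl trametinib 0.2 uM; lysis 40 min 4 °C; pERK by HTRF, 2 h RT.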

H727 cells, pERK = test: as above; assay type: cell-based; settings: Homo sapiens, NCI-H727, 3 h, read-out: Inhibition (HTRF IC50 nM) of KRas-mediated Phosphorylation of ERK, H727
Outline: as §2

H460 cells, pERK = test: as above; assay type: cell-based; settings: Homo sapiens, NCI-H460, 3 hrs, read-out: Inhibition (HTRF IC50 nM) of KRas-mediated Phosphorylation of ERK, H460
Outline: as §2

HCT116 cells, pERK = test: as above; assay type: cell-based; settings: Homo sapiens, HCT-116, 3 hrs, read-out: Inhibition (HTRF IC50 nM) of KRas-mediated Phosphorylation of ERK, HCT116
Outline: as §2

ASPC1 cells, pERK = test: as above; assay type: cell-based; settings: Homo sapiens, ASPC1, 3 h, AsPC-1 cells, read-out: Inhibition (HTRF IC50 nM) of KRas-mediated Phosphorylation of ERK, AsPC-1
Outline: as §2

MKN1 cells, pERK = test: as above; assay type: cell-based; settings: Homo sapiens, MKN-1, 3 h, read-out: Inhibition (HTRF IC50 nM) of KRas-mediated Phosphorylation of ERK, MKN1
Outline: as §2

PSN1 cells, pERK = test: as above; assay type: cell-based; settings: Homo sapiens, PSN1, 3 h, read-out: Inhibition (HTRF IC50 nM) of KRas-mediated Phosphorylation of ERK, PSN1
Outline: as §2

H358 cells, pERK = test: as above; assay type: cell-based; settings: Homo sapiens, NCI-H358, 3 hrs, read-out: Inhibition (HTRF IC50 nM) of KRas-mediated Phosphorylation of ERK, H358
Outline: as §2

T1 sequence (P01116 1-169 isoform P01116-2 G12V): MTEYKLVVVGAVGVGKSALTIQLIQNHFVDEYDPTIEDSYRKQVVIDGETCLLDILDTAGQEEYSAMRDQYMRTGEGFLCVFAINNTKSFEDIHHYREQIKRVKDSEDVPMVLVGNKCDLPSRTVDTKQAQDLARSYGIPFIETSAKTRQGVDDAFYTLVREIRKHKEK
Sequence of KRas^G12C (P01116 1-169 isoform P01116-2 G12C): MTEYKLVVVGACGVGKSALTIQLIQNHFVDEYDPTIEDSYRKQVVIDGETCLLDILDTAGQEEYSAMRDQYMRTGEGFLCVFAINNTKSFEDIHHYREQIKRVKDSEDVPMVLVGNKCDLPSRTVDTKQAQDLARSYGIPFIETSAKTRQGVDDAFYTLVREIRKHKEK
Sequence of KRas^G13D (P01116 1-169 isoform P01116-2 G13D): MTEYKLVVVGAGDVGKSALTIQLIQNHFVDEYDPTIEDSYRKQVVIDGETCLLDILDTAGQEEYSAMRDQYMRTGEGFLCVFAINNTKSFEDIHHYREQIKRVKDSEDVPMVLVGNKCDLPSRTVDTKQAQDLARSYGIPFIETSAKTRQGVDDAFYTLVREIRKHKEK

SMILES	IC50 (KRas^G13D) [nM]	IC50 (KRas^G12C) [nM]	IC50 (KRas^G12V) [nM]	IC50 (KRas^G12D) [nM]	IC50 (KRas^WT) [nM]	IC50 (KRas^Q61H) [nM]	IC50 (KRas^G12S) [nM]	IC50 (KRas^G12R) [nM]	IC50 [1] [nM]	IC50 [2] [nM]	IC50 [3] [nM]	IC50 [4] [nM]	IC50 [5] [nM]	IC50 [6] [nM]	IC50 [7] [nM]	IC50 (KRas^G12A) [nM]	IC50 (A549 cells, pERK) [nM]	IC50 (H727 cells, pERK) [nM]	IC50 (H460 cells, pERK) [nM]	IC50 (HCT116 cells, pERK) [nM]	also measured
CCc1c(F)ccc2cc(O)cc(N3CCc4c(nc(OCC56CCCN5CCC6)nc4N4CCC[C@@](C)(O)C4)C3)c12 [Example 1, (R)-1-(7-(8-ethyl-7-fluoro-3-hydroxynaphthalen-1-yl)-2-((hexahydro-1H-pyrrolizin-7a-yl)methoxy)-5,6,7,8-tetrahydropyrido[3,4-d]pyrimidin-4-yl)-3-methylpiperidin-3-ol]	≤ 2	≤ 2	≤ 2	≤ 2	≤ 2	≤ 2	≤ 2	≤ 2	1020	1400	601	1260	236	357	398	≤ 2	–	–	–	–	–
CCc1c(F)ccc2cc(O)cc(N3CCc4c(nc(OC[C@@]56CCCN5C[C@H](F)C6)nc4N4CCOCC(C)(O)C4)C3)c12 (stereo partly drawn) [Example 20, 4-(7-(8-ethyl-7-fluoro-3-hydroxynaphthalen-1-yl)-2-(((2R,7aS)-2-fluorohexahydro-1H-pyrrolizin-7a-yl)methoxy)-5,6,7,8-tetrahydropyrido[3,4-d]pyrimidin-4-yl)-6-methyl-1,4-oxazepan-6-ol]	–	–	≤ 2	≤ 2	–	–	–	52	446	> 10000	860	747	314	–	–	–	–	–	–	–	–
CCc1c(F)ccc2cc(O)cc(N3CCc4c(nc(OC[C@@]56CCCN5C[C@H](F)C6)nc4N4CCC[C@@](C)(O)C4)C3)c12 [Example 2, (R)-1-(7-(8-ethyl-7-fluoro-3-hydroxynaphthalen-1-yl)-2-(((2R,7aS)-2-fluorohexahydro-1H-pyrrolizin-7a-yl)methoxy)-5,6,7,8-tetrahydropyrido[3,4-d]pyrimidin-4-yl)-3-methylpiperidin-3-ol]	52	≤ 2	≤ 2	≤ 2	≤ 2	≤ 2	≤ 2	≤ 2	241	3530	863	798	252	184	280	≤ 2	144	315	146	426	IC50 (ASPC1 cells, pERK): 29 nM
CCc1c(F)ccc2cc(O)cc(N3CCc4c(nc(OC[C@@]56CCCN5C[C@H](F)C6)nc4N4CCCC5(C4)NC(=O)NC5=O)C3)c12 (stereo partly drawn) [Example 59, 7-(7-(8-ethyl-7-fluoro-3-hydroxynaphthalen-1-yl)-2-(((2R,7aS)-2-fluorohexahydro-1H-pyrrolizin-7a-yl)methoxy)-5,6,7,8-tetrahydropyrido[3,4-d]pyrimidin-4-yl)-1,3,7-triazaspiro[4.5]decane-2,4-dione]	–	–	≤ 2	≤ 2	–	–	–	≤ 2	–	–	–	181	–	17	44	–	3	40	9	16	IC50 (ASPC1 cells, pERK): 8 nM; IC50 (MKN1 cells, pERK): 5 nM; IC50 (PSN1 cells, pERK): 25.3 nM; IC50 (H358 cells, pERK): 4 nM
CCc1c(F)ccc2cc(O)cc(N3CCc4c(nc(OC[C@@]56CCCN5C[C@H](F)C6)nc4NCc4cccnc4N)C3)c12 [Example 17, 4-(4-(((2-aminopyridin-3-yl)methyl)amino)-2-(((2R,7aS)-2-fluorohexahydro-1H-pyrrolizin-7a-yl)methoxy)-5,6-dihydropyrido[3,4-d]pyrimidin-7(8H)-yl)-5-ethyl-6-fluoronaphthalen-2-ol]	–	–	≤ 2	26	–	–	–	≤ 2	189	> 10000	10000	1130	232	–	–	–	–	–	–	–	–
